Like-named read-outs stand apart in the source and are kept apart here.

The record followed here is patent US20090306060A1 (priority 2004, published 2009).

This test has as its system hybrid corn varieties. It counts as in vivo. The settings on record: for GY BU (2) (Grain Yield in bushels) / PC # (1): IFSA Inbred FR-A.
[1] abbreviates: Fludioxonil 3.5 GA/100 Kg seed, Azoxystrobin 1 GA/100 Kg seed.
The mark [2] stands for this setting: IFSA Inbred FR-C, Fludioxonil 3.5 GA/100 Kg seed, Azoxystrobin 1 GA/100 Kg seed.
[3] abbreviates: IFSA Inbred FR-D, Fludioxonil 3.5 GA/100 Kg seed, Azoxystrobin 1 GA/100 Kg seed.
[4] abbreviates: IFSA Inbred FR-F, Fludioxonil 3.5 GA/100 Kg seed, Azoxystrobin 1 GA/100 Kg seed.
[5] abbreviates: IFSA Inbred FR-G, Fludioxonil 3.5 GA/100 Kg seed, Azoxystrobin 1 GA/100 Kg seed.
Where [6] appears, read: IFSA Inbred W-A, Fludioxonil 3.5 GA/100 Kg seed, Azoxystrobin 1 GA/100 Kg seed.
Where [7] appears, read: IFSA Inbred W-B, Fludioxonil 3.5 GA/100 Kg seed, Azoxystrobin 1 GA/100 Kg seed.
[8] abbreviates: IFSA Inbred FR-C, Fludioxonil 2.5 GA/100 Kg seed.
Where [9] appears, read: IFSA Inbred FR-D, Fludioxonil 2.5 GA/100 Kg seed.
Where [10] appears, read: IFSA Inbred FR-F, Fludioxonil 2.5 GA/100 Kg seed.
Setting [11] is: IFSA Inbred FR-G, Fludioxonil 2.5 GA/100 Kg seed.
Setting [12] is: IFSA Inbred W-A, Fludioxonil 2.5 GA/100 Kg seed.
Setting [13] is: IFSA Inbred W-B, Fludioxonil 2.5 GA/100 Kg seed.

Take `CO/C=C(/C(=O)OC)c1ccccc1Oc1cc(Oc2ccccc2C#N)ncn1` [Azoxystrobin, azoxystrobin]: the “GY BU (2) (Grain Yield in bushels)” value under setting [1] was 168 a BU. The “PC # (1)” value under setting [1] worked out at 23232 a. Also, the “GY BU” value reads like this: under setting [2], 187 ab BU; under setting [3], 193 a BU; under setting [4], 179 b BU; under setting [5], 89 a BU; under setting [6], 173 ab BU; under setting [7], 204 a BU. The “PC #” value under setting [2] came to 24086 ab; the “PC #” value under setting [3] is reported as 23574 a; the “PC #” value under setting [4] stood at 18107 bc; the “PC #” value under setting [5] came out at 13153 a; the “PC #” value under setting [6] turned out to be 19645 a; the “PC #” value under setting [7] was determined as 23574 ab.
With `N#Cc1c[nH]cc1-c1cccc2c1OC(F)(F)O2` [Fludioxonil, fludioxonil], the “GY BU (2) (Grain Yield in bushels)” value was determined as 181 a BU (Fludioxonil 2.5 GA/100 Kg seed) and 180 a BU under setting [1]. Further, the “PC # (1)” value amounted to 23403 a (Fludioxonil 2.5 GA/100 Kg seed) and 23744 a under setting [1]. Besides, the “GY BU” value under setting [8] is 198 a BU; the “GY BU” value under setting [2] amounted to 176 b BU; the “GY BU” value under setting [9] is 184 a BU; the “GY BU” value under setting [3] is 185 a BU; the “GY BU” value under setting [10] is listed as 183 b BU; the “GY BU” value under setting [4] was 225 a BU. For the same compound, the “GY BU” value by setting is: under setting [11], 83 a BU; under setting [5], 85 a BU; under setting [12], 172 ab BU; under setting [6], 180 ab BU; under setting [13], 215 a BU; under setting [7], 204 a BU. In addition, the “PC #” value is, setting by setting: under setting [8], 24428 a; under setting [2], 23915 ab; under setting [9], 23574 a; under setting [3], 24599 a; under setting [10], 19986 b; under setting [4], 24428 a. Further, the “PC #” value by setting is: under setting [11], 13495 a; under setting [5], 11787 ab; under setting [12], 19474 a; under setting [6], 19986 a; under setting [13], 24599 a; under setting [7], 22036 b.
